Measurements published in publication PMC8230625 (International Journal of Molecular Sciences, 2021).
“And” between values parts separate entries of the source, which are not always exact repeats. Equal entries are not always repeated. “Also recorded” adds a separate entry of the source. Where two headings read alike, the source gives them in different places.

What was measured:
in vitro = conditions: human
Method: (§1) The HeLa cervical cancer adherent cell line (ATCC: CCL-2) was applied for the evaluation of individual and combined effects of mycotoxins on cell viability. The cells were cultured in DMEM (high glucose, 4500 mg/L) with 10% FBS, penicillin (100 U/mL), and streptomycin (100 μg/mL) in sterile plastic cell culture flasks (75 cm^2; 5% CO2, 37 °C). The cells were trypsinized and plated onto 96-well sterile plastic plates. Stock solutions (each 5000 μM) of ZEN, ZELs, ZAN, and ZALs used in cell experiments were prepared in 96 v/v% ethanol (spectroscopic grade; VWR, Debrecen, Hungary). Stock solutions of AOH (5000 μM or 40 mM) were prepared in spectroscopic grade dimethyl sulfoxide (DMSO; Fluka, Morris Plains, NJ, USA). Mycotoxin stock solutions were stored at −20 °C.
(§2) HeLa cells were treated with ZEN, α/β-ZEL, ZAN, α/β-ZAL, and AOH (0–250 μM) for 24 h. […] The cell viability was evaluated based on the ATP levels/well employing a previously described method without modifications.
(§3) Combined effects were evaluated based on combination indices (CI) determined using the CompuSyn software (ComboSyn Inc., Paramus, NJ, USA) by the median-effect equation of the mass-action law:(1) logfa/fu=m×log(D)−m×log(Dm), where fa and fu are the affected and unaffected fractions of the system, respectively; D represents the dose, Dm denotes the dose necessary for the production of median effect, while m is the sigmoidicity coefficient (m > 1 sigmoidal, m = 1 hyperbolic, m < 1 flat sigmoidal).
(§4) The combined effects of mycotoxins were determined by the CI values calculated based on the following equation [68]:(2) CI=(D)1/(Dx)1+(D)2/(Dx)2, where (Dx)1 and (Dx)2 are the individual doses necessary for the production of x% effect, while (D)1 and (D)2 are the doses of the two compounds that combined evoke the same effect as (Dx)1 alone or (Dx)2 alone, i.e., the targeted x% effect.

HeLa cells = experiment: in vitro; conditions: for Effect of the non-toxic (subtoxic) concentration of the compound on ATP levels of ZEN-exposed cells: co-exposure with toxic concentration of ZEN (20 μM), compared to ZEN-exposed cells, Figure 3A; for Concentration at (and above) which statistically significant (p < 0.01) decrease in cell viability was noticed: 24 h incubation, single compound; for IC50: Homo sapiens, read-out: Dm (IC50), viability of HeLa cells (ATP/well)
Method: as §1, §2, §3, §4

[1] = target: T1, hERα (Saccharomyces cerevisiae BLYES strain) (Homo sapiens, UniProt P03372); experiment: cell-based; assay type: cell-based; conditions: for CI Value (combination index) / Combined Estrogenic Effect / Combined Estrogenic Effect (grade symbol) / Combined estrogenic effect in Figure 5B / Concentration at (and above) which statistically significant (p < 0.01) estrogenic effect was observed / Effect of subtoxic (non-estrogenic) concentration of the compound on the estrogenic effect of ZEN: BLYES; for CI Value (combination index) / Combined Estrogenic Effect / Combined Estrogenic Effect (grade symbol): + 6.28 × 10^−2 µM ZEN; for Combined estrogenic effect in Figure 5B: + 62.8 ×10^-3 μM ZEN; for Effect of subtoxic (non-estrogenic) concentration of the compound on the estrogenic effect of ZEN: co-treatment with ZEN (approx. 20% estrogenicity), α-ZEL 1.56 × 10^−3 µM, ZAN 6.24 × 10^−3 µM, AOH up to 48.4 µM, Figure 5A
T1 construct: expressed in transfected cells; host or cells: Saccharomyces cerevisiae BLYES strain (hERα gene integrated in the chromosome)
T1 sequence (P03372 whole entry): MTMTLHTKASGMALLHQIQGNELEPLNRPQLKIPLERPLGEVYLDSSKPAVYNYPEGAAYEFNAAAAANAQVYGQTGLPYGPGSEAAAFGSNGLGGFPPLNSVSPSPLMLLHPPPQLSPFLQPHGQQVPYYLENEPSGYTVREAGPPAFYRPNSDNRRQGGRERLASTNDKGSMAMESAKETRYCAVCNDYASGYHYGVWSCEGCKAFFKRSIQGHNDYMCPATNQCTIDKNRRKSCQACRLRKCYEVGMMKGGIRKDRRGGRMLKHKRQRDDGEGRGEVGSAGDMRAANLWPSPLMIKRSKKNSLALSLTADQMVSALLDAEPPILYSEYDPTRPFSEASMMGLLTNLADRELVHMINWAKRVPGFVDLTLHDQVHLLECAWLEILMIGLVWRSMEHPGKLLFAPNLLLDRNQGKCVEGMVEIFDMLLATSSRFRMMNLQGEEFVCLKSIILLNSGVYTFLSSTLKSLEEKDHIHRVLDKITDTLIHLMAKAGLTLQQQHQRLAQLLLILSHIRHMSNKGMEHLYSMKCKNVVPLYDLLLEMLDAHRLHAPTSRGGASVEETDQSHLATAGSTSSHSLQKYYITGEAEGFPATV
From the text: The Saccharomyces cerevisiae BLYES strain was applied to examine the estrogenic activity of the compounds tested. This bioluminescent yeast bioreporter harbors the hERα gene on its chromosome, and it has two plasmids with genes responsible for bioluminescence. The pUTK404 plasmid contains luxC, -D, and -E genes from Photorhabdus luminescens and flavin oxidoreductase gene (frp) from Vibrio harveyi. The pUTK407 plasmid contains tandem estrogen responsive elements (EREs) that initiate the transcription of luxA and luxB genes after binding the dimer formed by estrogen receptor—ligand complexes.
S. cerevisiae BLYES strain was grown in 30 mL of yeast growth medium (YMM leu-, ura-) for 18–20 h at 30 °C.
Stock solutions of the compounds tested were prepared in methanol and stored at −20 °C. Estrogen assays were carried out on 96-well (PS, F-bottom) microplates (Greiner Bio-One Hungary Ltd., Mosonmagyaróvár, Hungary). In single compound tests, stock solutions of the compounds were serially diluted with methanol; whereas, in co-exposure experiments, a 20-µL mixture of the solutions was placed into the wells of the microplates. After the evaporation of methanol, yeast culture (200 µL; OD600 of 1.000 ± 0.050) were pipetted into each well. E2 was applied as a positive control, while wells containing only yeast cells and yeast cells with methanol served as negative and solvent controls, respectively. Bioluminescence (cps, counts per second) was measured after 5-h incubation (30 °C) with a VictorX Multilabel Plate Reader (Perkin Elmer Inc., Waltham, MA, USA).
as §3, §4
Zero percent was defined in each measurement as the mean of the methanol control values, and 100% was defined as the mean of all plateau values of single compounds’ concentration—response curves.

hERα = test system: hERα; parameters: method as in PMID 16194592; conditions: cited from earlier work
hERβ = test system: hERβ; parameters: method as in PMID 16194592; conditions: cited from earlier work
Ishikawa cells = test system: Ishikawa cells; parameters: method as in PMID 16194592; conditions: alkaline phosphatase assay; cited from earlier work
estrogen receptors = test system: estrogen receptors; parameters: method as in PMID 28910742; conditions: yeast reporters bioassay; cited from earlier work
androgen receptors = test system: androgen receptors; parameters: method as in PMID 28910742; conditions: yeast reporters bioassay; cited from earlier work
[2] = HeLa, 24 h, 10 µM (lower toxic concentration) of the compound + 20 µM ZEN
[3] = HeLa, 24 h, 10 µM of the compound + 20 µM ZEN
[4] = HeLa, 24 h, 10 µM of the compound + 20 µM ZEN, CompuSyn
[5] = HeLa, 24 h, 30 µM (higher toxic concentration) of the compound + 20 µM ZEN
[6] = HeLa, 24 h, 30 µM of the compound + 20 µM ZEN
[7] = HeLa, 24 h, 30 µM of the compound + 20 µM ZEN, CompuSyn
[8] = higher concentration (µM): α-ZEL 1.25 × 10^−2, β-ZEL 2.43, ZAN 4.99 × 10^−2, α-ZAL 2.48 × 10^−2, β-ZAL 2.48 × 10^−1, GEN 1.48
[9] = higher estrogenic concentration of the compound (as E22)
[10] = lower concentration (µM): α-ZEL 6.24 × 10^−3, β-ZEL 1.22, ZAN 2.50 × 10^−2, α-ZAL 1.24 × 10^−2, β-ZAL 1.24 × 10^−1, GEN 7.4 × 10^−1
[11] = lower estrogenic concentration of the compound (as E21)
[12] = higher estrogenic concentration of the compound (as E20)
[13] = lower estrogenic concentration of the compound (as E19)

| SMILES | cytotoxicity at 10 µM (in vitro) | cytotoxicity at 30 µM (in vitro) | Combined cytotoxic effect in Figure 3B (HeLa cells; [2]) | Combined Cytotoxic Effect (HeLa cells; [3]) | Combined Cytotoxic Effect (grade symbol) (HeLa cells; [3]) | CI Value (combination index) (HeLa cells; [4]) | Combined cytotoxic effect in Figure 3B (HeLa cells; [5]) | Combined Cytotoxic Effect (HeLa cells; [6]) | Combined Cytotoxic Effect (grade symbol) (HeLa cells; [6]) | CI Value (combination index) (HeLa cells; [7]) | Concentration at (and above) which statistically significant (p < 0.01) decrease in cell viability was noticed (HeLa cells; HeLa) | IC50 (HeLa cells; HeLa, 24 h) | EC50 [1] | CI Value (combination index) [1, 8] | Combined Estrogenic Effect [1, 9] | Combined Estrogenic Effect (grade symbol) [1, 9] | CI Value (combination index) [1, 10] | Combined Estrogenic Effect [1, 11] | Combined Estrogenic Effect (grade symbol) [1, 11] | Combined estrogenic effect in Figure 5B [1, 12] | also measured |
| --- | --- | --- | --- | --- | --- | --- | --- | --- | --- | --- | --- | --- | --- | --- | --- | --- | --- | --- | --- | --- | --- |
| C[C@H]1CCC[C@@H](O)CCC/C=C/c2cc(O)cc(O)c2C(=O)O1 [β-ZEL, β-zearalenol] | 19.7% | 33.1% | Syn | Synergism (CI < 0.8: synergism) | + (0.60 < CI < 0.80: +) | 0.64 | Add | Additive effect (0.8 < CI < 1.2: additive effect) | ± (0.80 < CI < 1.20: ±) | 1.07 | 10 µM | 39.4 µM | 2.4 µM | 0.95 | Additive effect (0.8 < CI < 1.2: additive effect) | ± (0.80 < CI < 1.20: ±) | 0.77 | Synergism (CI < 0.8: synergism) | + (0.60 < CI < 0.80: +) | additive effects | Effect of the non-toxic (subtoxic) concentration of the compound on ATP levels of ZEN-exposed cells (HeLa cells; HeLa, 24 h): statistically significant (p < 0.01) decreases in ATP levels; Combined estrogenic effect in Figure 5B [1, 13]: synergism; Concentration at (and above) which statistically significant (p < 0.01) estrogenic effect was observed ([1]; single compound): 0.31 µM |
| Cc1cc(O)cc2oc(=O)c3c(O)cc(O)cc3c12 [AOH, alternariol] |  |  | Syn and synergism | Synergism (CI < 0.8: synergism) | + (0.60 < CI < 0.80: +) | 0.73 | Syn and synergism | Synergism (CI < 0.8: synergism) | ++ (CI < 0.60: ++) | 0.50 | 10 µM | 33.6 µM |  |  |  |  |  |  |  |  | cytotoxicity at 24 h, 10 µM (in vitro; Decrease in cellular ATP levels (% of control), individual effect, HeLa, 24 h, single compound at 10 μM): 13.6%; cytotoxicity at 24 h, 30 µM (in vitro; Decrease in cellular ATP levels (% of control), individual effect, HeLa, 24 h, single compound at 30 μM): 32.4%; Effect of subtoxic (non-estrogenic) concentration of the compound on the estrogenic effect of ZEN [1]: did not cause any relevant change; also recorded: did not increase the estrogenic effect of ZEN; Estrogenic effect in BLYES assay ([1]; single compound, even at 50 µM): did not induce estrogenic effects; also recorded: did not show estrogenicity; Fold lower affinity toward hERα compared to 17β-estradiol (E2) (hERα): 10,000 fold; Fold lower affinity toward hERβ compared to 17β-estradiol (E2) (hERβ): 2500 fold; Fold weaker estrogenic effects vs. E2 (Ishikawa cells): 10,000 fold; Behaviour at estrogen receptors (estrogen receptors): weak partial agonist; Behaviour at androgen receptors (androgen receptors): full agonist |
| C[C@H]1CCCC(=O)CCCCCc2cc(O)cc(O)c2C(=O)O1 [ZAN, zearalanone] | 13.2% | 34.8% | Syn and synergism | Synergism (CI < 0.8: synergism) | ++ (CI < 0.60: ++) | 0.55 | Syn and synergism | Synergism (CI < 0.8: synergism) | + (0.60 < CI < 0.80: +) | 0.77 | 10 µM | 61.5 µM | 0.048 µM | 0.62 | Synergism (CI < 0.8: synergism) | + (0.60 < CI < 0.80: +) | 0.58 | Synergism (CI < 0.8: synergism) | ++ (CI < 0.60: ++) | synergism | Combined estrogenic effect in Figure 5B [1, 13]: synergism; Effect of subtoxic (non-estrogenic) concentration of the compound on the estrogenic effect of ZEN [1]: statistically significant (p < 0.05) increases; Concentration at (and above) which statistically significant (p < 0.01) estrogenic effect was observed ([1]; single compound): 0.012 µM |
| C[C@H]1CCC[C@@H](O)CCCCCc2cc(O)cc(O)c2C(=O)O1 [β-ZAL, β-zearalanol] | 9.6% | 28% | Syn | Synergism (CI < 0.8: synergism) | ++ (CI < 0.60: ++) |  | Syn | Synergism (CI < 0.8: synergism) | + (0.60 < CI < 0.80: +) |  | 10 µM | 64.5 µM | 0.18 µM | 1.56 | Antagonism (CI > 1.2: antagonism) | -- (CI > 1.40: --) | 1.19 | Additive effect (0.8 < CI < 1.2: additive effect) | ± (0.80 < CI < 1.20: ±) | antagonism | CI Value (combination index) (HeLa cells): 0.51 and 0.72; Effect of the non-toxic (subtoxic) concentration of the compound on ATP levels of ZEN-exposed cells (HeLa cells; HeLa, 24 h): statistically significant (p < 0.01) decreases in ATP levels; Combined estrogenic effect in Figure 5B [1, 13]: additive effect; Concentration at (and above) which statistically significant (p < 0.01) estrogenic effect was observed ([1]; single compound): 0.03 µM |
